Data set [1] has as its system Nicotiana tabacum L. Xanthi leaf explants. The data set can be described thus: Tobacco shoot regeneration with glyphosate selection. The class given is cell-based. The conditions noted are these: explants lacking a GAT gene. An excerpt: Agrobacterium-mediated transformation of plant cells occurs at low efficiencies. To allow propagation of transformed cells while inhibiting proliferation of non-transformed cells, a selectable marker is needed. Antibiotic markers for kanamycin and hygromycin and the herbicide modifying gene bar, which detoxifies the herbicidal compound phosphinothricin, are examples of selectable markers used in plants (Methods in Molecular Biology, 1995, 49:9-18). […] An evolved GAT gene (0—5B8), SEQ ID NO: 190, was cloned between a plant promoter (enhanced strawberry vein banded virus) and a […] terminator and introduced into the T-DNA region of the binary vector pMAXY3793 suitable for transformation of plant cells via Agrobacterium tumefaciens EHA105 as shown in FIG. 12. A screenable GUS marker was present in the T-DNA to allow confirmation of transformation. Transgenic tobacco shoots were generated using glyphosate as the only selecting agent.
Axillary buds of Nicotiana tabacum L. Xanthi were subcultured on half-strength MS medium with sucrose (1.5%) and Gelrite (0.3%) under 16-h light (35-42 μEinsteins m^−2 s^−1, cool white fluorescent lamps) at 24° C. every 2-3 weeks. Young leaves were excised from plants after 2-3 weeks subculture and were cut into 3×3 mm segments. A. tumefaciens EHA105 was inoculated into LB medium and grown overnight to a density of A600=1.0. […]

Another data set has as its system tobacco plants. Nature of the data set: Herbicide spray tests of GAT expressing tobacco plants. The class given is in vivo, Nicotiana tabacum. The procedure:
Tobacco shoots generated as described in EXAMPLE 9 were excised from the explants and transferred to basal root induction (BRI) medium composed of half-strength Murashige and Skoog (MS) medium, pH 5.7, with 1.5% sucrose, 0.3% Gelrite, 0-200 uM glyphosate and 400 ug/ml Timentin. Rooted plants and axillary shoots were clonally propagated by cutting the stem and transferring it to fresh BRI medium until the desired number of clones was obtained. Rooted plants were carefully removed from the solid medium. Prior to placing the plants into small pots of soil, the roots were washed to remove any remaining Gelrite. A protective plastic cover was kept over the plants for at least one week until the plants were well established.
To determine if GAT expressing tobacco plants could tolerate simulated field rate sprays of glyphosate, clonal lines of several events per GAT variant were tested. A typical test was set up as follows: One clone from each event was sprayed with 1 ml of solution containing the isopropylamine salt of glyphosate (Sigma P5671) and 0.125% Triton X-100, pH 6.8 such that the amount of active ingredient sprayed was equivalent to that present in commercial glyphosate products. For example, to achieve 32 oz/acre (1×) of herbicide containing 40% active ingredient (“ai”), 2.4 ul of 40% ai formulation was diluted into 1 ml water and sprayed on a plant in a 4-inch square pot (16 in^2). A mock application (0×) with surfactant only was also included. In some cases a second spray was applied 1-4 weeks later. Plants were kept in controlled growth rooms at 25° C. and 70% humidity with 16 hr light.
Seed-grown wild type plants were also sprayed. […] All 0× plants were healthy, including the non-GAT control plants. Three weeks later all of the surviving plants were sprayed with an 8× dose.

A further data set concerns yeast strain YPH499. Nature of the data set: Glyphosate selection of transformed yeast cells. The class given is cell-based, Saccharomyces cerevisiae. The conditions noted are these: CSM-YNB-glucose medium lacking aromatic amino acids with added glyphosate. An excerpt: Selection markers for yeast transformation are usually auxotrophic genes that allow growth of transformed cells on a medium lacking the specific amino acid or nucleotide. Because Saccharomyces cerevisiae is sensitive to glyphosate, GAT can also be used as a selectable marker. […] This plasmid contains an E. coli origin of replication and a gene conferring carbenicillin resistance as well as a TRP1, tryptophan auxotroph selectable marker for yeast transformation.
The GAT containing construct is transformed into E. coli XL1 Blue (Statagene) and plated on LB carbenicillin (50 ug/ml) agar medium. Plasmid DNA is prepared and used to transform yeast strain YPH499 (Stratagene) using a transformation kit (Bio 101). Equal amounts of transformed cells are plated on CSM-YNB-glucose medium (Bio 101) lacking all aromatic amino acids (tryptophan, tyrosine, and phenylalanine) with added glyphosate. For comparison, p424TEF lacking the GAT gene is also introduced into YPH499 and plated as described. […] The presence of the GAT containing vector in glyphosate selected colonies can be confirmed by re-isolation of the plasmid and restriction digest analysis.

For the molecule `O=C(O)CNCP(=O)(O)O` [glyphosate, N-phosphonomethylglycine], the “glyphosate concentration that completely inhibited any shoot formation” value in data set [1] is “greater than 20 uM”. In addition, the “plant response two weeks after glyphosate spray” value in the data set on tobacco plants (0.5, 2 or 4× glyphosate, vector only and seed grown wild type tobacco) is “stopped growing, wilted, and turned brown”. In the data set with tobacco plants (8× glyphosate, non-GAT 0× control tobacco plants), the “plant response after 8× dose” value is “died within two weeks”.

B1: SEQ ID NO: 196: evolved GAT gene (nucleic acid)
DNA: ATGCTAGAGGTGAAACCGATTAACGCAGAGGATACCTATGAACTAAGGCATAAAATACTCAGACCAAACCAGCCGTTAGAAGTGTGTATGTATGAAACCGATTTACTTCGTGGTGCATTTCACTTAGGCGGCTTTTACAGGGGCAAACTGATTTCCATAGCTTCATTCCACCAGGCCGAGCACTCAGACCTCCAAGGCCAGAAACAGTACCAGCTCCGAGGTATGGCTACCTTGGAAGGTTATCGTGATCAGAAAGCGGGATCGAGTCTAATTAGACACGCTGAACAAATTCTTCGTAAGAGGGGGGCGGACATGCTTTGGTGCAATGCGCGGACATCCGCCTCAGGCTACTACAAAAAGTTAGGCTTCAGCGAGCAGGGAGAGGTATTTGAAACGCCGCCAGTAGGACCTCACATCCTGATGTATAAAAGGCTCACA
modifications: Synthetic DNA Sequence; 0_6D10
notes: evolved GAT gene
Regarding B1, the “plant response two weeks after glyphosate spray” value with tobacco plants (0.5, 2 or 4× glyphosate (1× = 32 oz/acre of 40% ai), transgenic GAT tobacco) is reported as “survived the spraying procedure without signs of glyphosate damage”. For the same molecule, the “survival after second spray” value in the data set with tobacco plants (8× glyphosate dose three weeks later, transgenic GAT tobacco) was “all GAT plants survived”. For the same molecule, the “function as selectable marker in yeast” value in the data set on yeast strain YPH499 was “efficient selectable marker”.

These data come from patent publication US8008547B2, “Glyphosate-N-acetyltransferase (GAT) genes” (E.I. duPont de Nemours, priority 2000, dated 2011).
